In one series the target is CYP2C19 (Homo sapiens, UniProt P33261). To be noted: FDA, 2017; Swissmedic, 2020; cited from earlier work.
The test system of series [1] is healthy subjects. In words: Adjective Mood Rating Scale (AMRS). The format is in vivo, human. To be noted: escitalopram 14 days pretreatment vs placebo; P=0.007. As to the method:
(§1) Treatment order was random and counterbalanced.
The 60-item Adjective Mood Rating Scale (AMRS) (Janke & Debus, 1978) was administered before and 2, 3, 5, and 7 hours after psilocybin administration.
The criterion for significance was p<0.05.

A short description of series [2]: Plasma drug concentrations and pharmacokinetic analyses. It is filed as in vivo, human. To be noted: for concentration at 14 days: human, in vivo. As to the method:
The blood samples were immediately centrifuged, and the plasma was subsequently stored at −80° C. until analysis.
This allows to determine the concentrations of unconjugated psilocin and of psilocin glucuronide which corresponds to the difference between samples that were incubated with and without glucuronidase.

For series [3], the system named is healthy subjects. Nature of the series: 5 Dimensions of Altered States of Consciousness Scale (5D-ASC). The format is in vivo, human. To be noted: escitalopram 14 days pretreatment vs placebo.
Text: as §1
5-Dimensional Altered States of Consciousness (5D-ASC): The 5-dimensional Altered States of Consciousness (5D-ASC) Scale is a visual analog scale consisting of 94 items (Dittrich, 1998; Studerus et al., 2010). The instrument contains five main scales (FIG. 17) and 11 newer subscales (FIG. 18) assessing mood, anxiety, derealization, depersonalization, changes in perception, auditory alterations, and reduced vigilance. The scale is well-validated (Studerus et al., 2010). The total ASC score is the sum of the three main dimensions/scales Oceanic Boundlessness (OB), Anxious Ego Dissolution (AED) and Visionary Restructuralization (VR). There are two additional main scales measuring Auditory Alterations (AA) and Vigilance Reduction (VIR) (FIG. 17). The 5D-ASC scale was administered once at the end of the session and subjects were instructed to retrospectively rate peak alterations that have been experienced during the study session. Each item of the scale is scored on a 0-100 mm VAS. The attribution of the individual items to the subscales of the 5D-ASC was analyzed according to (Dittrich, 1998; Studerus et al., 2010) and as shown in FIG. 18. The scale was be administered once at the end of each test session.

In a further series the test system is BDNF. Nature of the series: Plasma BDNF levels (ELISA). It is filed as in vivo, human. To be noted: escitalopram 14 days pretreatment vs placebo. The method, then: Psychedelics can induce neuroregeneration (Ly et al., 2018). Plasma BDNF levels are a possible biomarker for neurogenesis (Haile et al., 2014). Psychedelics increase BDNF (Holze et al., 2021; Hutten et al., 2020) and higher BDNF levels were associated with lower depression ratings after administration of psychedelics (de Almeida et al., 2019). Plasma BDNF levels were measured at baseline and 4 and 7 hours after drug administration using the Biosensis Mature BDNF Rapid ELISA Kit (Thebarton, Australia) (Akimoto et al., 2019).
On the technique in general: In an ELISA, binding on a coated surface is turned into a signal by an enzyme label.

Series [4] deals with healthy subjects. Nature of the series: QTc time. To be noted: escitalopram pretreatment compared with placebo. It is filed as in vivo, human. The text has this:
Exclusion criteria: Chronic or acute medical condition, including a history of seizures. Current or previous major psychiatric disorder (e.g. psychotic disorders, mania/hypomania, anxiety disorders, and substance abuse). Psychotic disorder in first-degree relatives, not including psychotic disorders secondary to an apparent medical reason, e.g. brain injury, dementia, or lesions of the brain. Illicit substance use (with the exception of cannabis) more than 10 times or any time within the previous two months. History of an angle closure glaucoma. Pregnant or nursing women. Participation in another clinical trial (currently or within the last 30 days). […] A corrected QT time (QTc), calculated by Bazett's formula, of over 450 milliseconds in males and over 470 milliseconds in females. Tobacco smoking (>10 cigarettes/day). Consumption of alcoholic drinks (>10 drinks/week). Bodyweight <45 kg.

Series [5] relates to healthy subjects. Nature of the series: Autonomic measures (blood pressure, heart rate, body temperature, pupil size). As to the method:
Study design: A double-blind, cross-over design was used with two conditions. […] 2) Pretreatment with placebo for 14 days with the last administration on the study day and administration of 25 mg psilocybin 2 hours later. Treatment order was random and counterbalanced. Between the 14 days pretreatment and the study day, there were at least 2 days washout until the next pretreatment phase began.
Autonomic measures: Blood pressure, heart rate, and body temperature were recorded at baseline and repeatedly throughout the session. Blood pressure (systolic and diastolic) and heart rate were measured with an automatic oscillometric device. Body temperature was measured with an ear thermometer as previously described in detail (Hysek et al., 2010). Measures were taken before and at 0, 0.25, 0.5, 0.75, 1, 1.5, 2, 2.5, 3, 4, 5, 6 and 7 hours after psilocybin administration.
Data analysis: Peak (Emax and/or Emin) or peak change from baseline (ΔEmax) values were determined for repeated measures. The values were then analyzed using paired T-tests using Statistica 12 software (StatSoft, Tulsa, OK, USA). The criterion for significance was p<0.05.

Where [6] appears, read: escitalopram 14 days pretreatment vs placebo.

Read-outs that look alike come from different tables or passages of the source. Some results are limits rather than exact numbers.

Sequence of CYP2C19 (P33261 whole entry): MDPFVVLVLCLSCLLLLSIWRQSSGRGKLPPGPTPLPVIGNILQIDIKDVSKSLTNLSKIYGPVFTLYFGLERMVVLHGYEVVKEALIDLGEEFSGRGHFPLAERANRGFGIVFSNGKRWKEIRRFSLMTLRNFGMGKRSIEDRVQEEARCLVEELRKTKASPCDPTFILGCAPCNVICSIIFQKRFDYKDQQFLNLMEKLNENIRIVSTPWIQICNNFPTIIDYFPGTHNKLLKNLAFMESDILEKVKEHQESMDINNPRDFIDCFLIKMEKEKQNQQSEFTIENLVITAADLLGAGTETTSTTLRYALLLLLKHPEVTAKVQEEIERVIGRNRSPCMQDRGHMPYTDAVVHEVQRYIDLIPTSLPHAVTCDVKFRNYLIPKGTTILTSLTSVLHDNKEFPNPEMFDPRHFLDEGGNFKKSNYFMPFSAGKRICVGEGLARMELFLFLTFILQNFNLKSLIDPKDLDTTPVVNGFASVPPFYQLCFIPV

With `CN(C)CCC[C@@]1(c2ccc(F)cc2)OCc2cc(C#N)ccc21` [Escitalopram, escitalopram], at CYP2C19, the “inhibition of CYP2C19 function” value is “slightly inhibits”. Further, the “effect on psilocybin-induced anxiety in the AMRS” value in the series with healthy subjects [1] is “significantly reduced”. In series [2] (after 14 days escitalopram (10 mg 7 days, 20 mg 7 days)), the “peak plasma concentrations (mean, range)” value was 41 (35-53) ng/mL. Further, in series [2] (setting [6]), the “effect on the pharmacokinetics of 4-HIAA” value was “did not relevantly or significantly alter”, the “effect on the pharmacokinetics of psilocin” value is “did not relevantly or significantly alter” and the “effect on the pharmacokinetics of psilocin glucuronide” value is “did not relevantly or significantly alter”. The concentration at 14 days in series [2] (after 14 days escitalopram (10 mg 7 days, 20 mg 7 days), read-out: plasma concentrations (mean, range)) was found to be 41 ng/mL. For the same compound, the concentration at 14 days in series [2] (after 14 days escitalopram, described as high, read-out: plasma concentrations in all subjects) was under 35 ng/mL. Besides, the “effect on psilocybin-induced anxiety in the 5D-ASC” value in the series with healthy subjects [3] (P=0.026) was “significantly reduced”. Further, the “effect on psilocybin-induced anxious ego dissolution in the 5D-ASC” value with healthy subjects [3] (P=0.029) was “significantly reduced”. Further, the “effect on the psilocybin-induced moderate increase in BDNF” value in the series with BDNF is recorded as “did not significantly alter”. In addition, in the series with healthy subjects [4], the “QTc time before or after psilocybin administration” value is reported as “did not alter”. Also, the “effect on psilocybin-induced elevations in peak systolic blood pressure” value in the series with healthy subjects [5] (escitalopram 14 days pretreatment vs placebo, P<0.001) is reported as “reduced”. For the same compound, the “effect on psilocybin-induced elevations in rate pressure product” value in the series with healthy subjects [5] (escitalopram 14 days pretreatment vs placebo, P=0.001) is reported as “reduced”. For the same compound, the “effect on psilocybin-induced pupil dilation” value in the series with healthy subjects [5] (escitalopram 14 days pretreatment vs placebo, P=0.002) is “reduced”. In the series with healthy subjects [5] (escitalopram 14 days pretreatment vs placebo, P=0.017), the “effect on psilocybin-induced elevations in peak diastolic blood pressure” value is given as “reduced”. The “effect on psilocybin-induced cardio-stimulant effects” value with healthy subjects [5] (escitalopram pretreatment compared to psilocybin alone (summary)) is “reduced”. Moreover, the “effect on adverse autonomic effects of psilocybin” value in the series on healthy subjects [5] (escitalopram pretreatment compared with placebo pretreatment (summary)) is “significantly reduced”.
